Assay results: patent publication US12509453B2, “BRM/BRG1 inhibitors and uses thereof” (Foghorn Therapeutics Inc., priority 2019, dated 2025)

Experiments:
[1] = target: T1, BRM (Homo sapiens, UniProt P51531); test: ATPase catalytic activity assay (ADP-Glo), BRM; format: biochemical; details: 30 nM BRM, 400 μM ATP; for IC50: 20 nM salmon sperm DNA, read-out: BRM IP50 (μM)*
T1 construct: made in house; host or cells: High Five insect cells
Procedure: (§1) The ATPase catalytic activity of BRM or BRG-1 was measured by the in vitro biochemical assay using ADP-Glo™ (Promega, V9102). The ADP-Glo™ kinase assay is performed in two steps once the reaction is complete. The first step is to deplete any unconsumed ATP in the reaction. The second step is to convert the reaction product ADP to ATP, which will be utilized by the luciferase to generate luminesce and be detected by a luminescence reader, such as Envision.
(§2) The assay reaction mixture (10 μL) contains 30 nM of BRM or BRG-1, 20 nM salmon sperm DNA (from Invitrogen, UltraPure™ Salmon Sperm DNA Solution, cat #15632011), and 400 μM of ATP in the ATPase assay buffer, which comprises of 20 mM Tris, pH 8, 20 mM MgCl2, 50 mM NaCl, 0.1% Tween-20, and 1 mM fresh DTT (Pierce™ DTT (Dithiothreitol), cat #20290). The reaction is initiated by the addition of the 2.5 μL ATPase solution to 2.5 μL ATP/DNA solution on low volume white Proxiplate-384 plus plate (PerkinElmer,cat #6008280) and incubates at room temperature for 1 hour. Then following addition of 5 μL of ADP-Glo™ Reagent provided in the kit, the reaction incubates at room temperature for 40 minutes. Then 10 μL of Kinase Detection Reagent provided in the kit is added to convert ADP to ATP, and the reaction incubates at room temperature for 60 minutes. Finally, luminescence measurement is collected with a plate-reading luminometer, such as Envision.
as §1, with “The” for “The ATPase catalytic activity of BRM or BRG-1 was measured by the in vitro biochemical assay using ADP-Glo™ (Promega, V9102). The”
as §2, with “BRG1,” for “BRG-1,”

[2] = target: T2, BRG-1 (Homo sapiens, UniProt P51532); test: ATPase catalytic activity assay (ADP-Glo), BRG-1; format: biochemical; details: 30 nM BRG-1, 400 μM ATP; for IC50: 20 nM salmon sperm DNA, read-out: BRG1 IP50 (μM)*; for Emax: read-out: BRG1 Max % Inhibition
T2 construct: made in house; host or cells: High Five insect cells
T2 sequence (P51532 whole entry): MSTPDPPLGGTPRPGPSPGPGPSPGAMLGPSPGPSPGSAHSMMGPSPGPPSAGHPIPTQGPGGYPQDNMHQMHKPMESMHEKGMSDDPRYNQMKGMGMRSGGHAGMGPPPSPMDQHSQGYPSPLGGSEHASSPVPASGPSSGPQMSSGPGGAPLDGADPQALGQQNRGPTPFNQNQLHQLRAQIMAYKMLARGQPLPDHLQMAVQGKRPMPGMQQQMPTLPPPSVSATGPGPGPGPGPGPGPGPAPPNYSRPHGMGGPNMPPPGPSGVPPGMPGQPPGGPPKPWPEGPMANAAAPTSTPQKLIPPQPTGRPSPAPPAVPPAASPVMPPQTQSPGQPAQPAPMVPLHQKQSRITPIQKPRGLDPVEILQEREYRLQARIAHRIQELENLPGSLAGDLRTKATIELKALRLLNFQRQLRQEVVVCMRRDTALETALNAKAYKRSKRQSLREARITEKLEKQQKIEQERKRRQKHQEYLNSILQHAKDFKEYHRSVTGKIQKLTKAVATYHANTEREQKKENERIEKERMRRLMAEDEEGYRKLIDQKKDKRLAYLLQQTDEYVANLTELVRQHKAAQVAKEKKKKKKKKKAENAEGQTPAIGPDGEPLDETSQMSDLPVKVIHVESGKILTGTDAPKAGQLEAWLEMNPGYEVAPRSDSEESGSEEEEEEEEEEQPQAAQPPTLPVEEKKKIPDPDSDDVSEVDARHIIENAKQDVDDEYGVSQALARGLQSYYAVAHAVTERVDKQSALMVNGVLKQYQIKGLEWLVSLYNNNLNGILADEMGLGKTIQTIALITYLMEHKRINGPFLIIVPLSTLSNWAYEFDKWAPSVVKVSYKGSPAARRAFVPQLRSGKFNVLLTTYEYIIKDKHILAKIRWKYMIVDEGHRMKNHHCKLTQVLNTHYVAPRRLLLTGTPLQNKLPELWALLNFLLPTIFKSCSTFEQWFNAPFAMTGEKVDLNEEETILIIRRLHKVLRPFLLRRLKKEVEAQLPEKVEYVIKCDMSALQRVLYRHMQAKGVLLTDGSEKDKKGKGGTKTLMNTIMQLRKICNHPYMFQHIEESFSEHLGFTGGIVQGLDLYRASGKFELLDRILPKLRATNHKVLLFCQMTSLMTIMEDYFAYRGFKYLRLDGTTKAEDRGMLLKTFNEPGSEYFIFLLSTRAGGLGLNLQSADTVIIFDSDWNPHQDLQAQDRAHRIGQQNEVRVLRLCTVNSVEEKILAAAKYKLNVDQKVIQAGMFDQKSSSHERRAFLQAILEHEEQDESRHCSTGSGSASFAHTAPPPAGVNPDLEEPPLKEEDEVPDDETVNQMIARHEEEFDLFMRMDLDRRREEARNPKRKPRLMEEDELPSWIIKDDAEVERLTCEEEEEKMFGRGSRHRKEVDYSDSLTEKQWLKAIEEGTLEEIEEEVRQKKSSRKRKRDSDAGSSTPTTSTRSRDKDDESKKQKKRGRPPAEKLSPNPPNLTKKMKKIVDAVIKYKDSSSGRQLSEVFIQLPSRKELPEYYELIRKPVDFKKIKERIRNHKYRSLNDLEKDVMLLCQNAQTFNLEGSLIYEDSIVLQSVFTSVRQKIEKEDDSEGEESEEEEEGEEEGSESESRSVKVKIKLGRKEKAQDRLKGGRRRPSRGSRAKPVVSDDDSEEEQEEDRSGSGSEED
Procedure: as §1, §2
as §1, with “The” for “The ATPase catalytic activity of BRM or BRG-1 was measured by the in vitro biochemical assay using ADP-Glo™ (Promega, V9102). The”
as §2, with “BRG1,” for “BRG-1,”

T1 sequence (P51531 whole entry): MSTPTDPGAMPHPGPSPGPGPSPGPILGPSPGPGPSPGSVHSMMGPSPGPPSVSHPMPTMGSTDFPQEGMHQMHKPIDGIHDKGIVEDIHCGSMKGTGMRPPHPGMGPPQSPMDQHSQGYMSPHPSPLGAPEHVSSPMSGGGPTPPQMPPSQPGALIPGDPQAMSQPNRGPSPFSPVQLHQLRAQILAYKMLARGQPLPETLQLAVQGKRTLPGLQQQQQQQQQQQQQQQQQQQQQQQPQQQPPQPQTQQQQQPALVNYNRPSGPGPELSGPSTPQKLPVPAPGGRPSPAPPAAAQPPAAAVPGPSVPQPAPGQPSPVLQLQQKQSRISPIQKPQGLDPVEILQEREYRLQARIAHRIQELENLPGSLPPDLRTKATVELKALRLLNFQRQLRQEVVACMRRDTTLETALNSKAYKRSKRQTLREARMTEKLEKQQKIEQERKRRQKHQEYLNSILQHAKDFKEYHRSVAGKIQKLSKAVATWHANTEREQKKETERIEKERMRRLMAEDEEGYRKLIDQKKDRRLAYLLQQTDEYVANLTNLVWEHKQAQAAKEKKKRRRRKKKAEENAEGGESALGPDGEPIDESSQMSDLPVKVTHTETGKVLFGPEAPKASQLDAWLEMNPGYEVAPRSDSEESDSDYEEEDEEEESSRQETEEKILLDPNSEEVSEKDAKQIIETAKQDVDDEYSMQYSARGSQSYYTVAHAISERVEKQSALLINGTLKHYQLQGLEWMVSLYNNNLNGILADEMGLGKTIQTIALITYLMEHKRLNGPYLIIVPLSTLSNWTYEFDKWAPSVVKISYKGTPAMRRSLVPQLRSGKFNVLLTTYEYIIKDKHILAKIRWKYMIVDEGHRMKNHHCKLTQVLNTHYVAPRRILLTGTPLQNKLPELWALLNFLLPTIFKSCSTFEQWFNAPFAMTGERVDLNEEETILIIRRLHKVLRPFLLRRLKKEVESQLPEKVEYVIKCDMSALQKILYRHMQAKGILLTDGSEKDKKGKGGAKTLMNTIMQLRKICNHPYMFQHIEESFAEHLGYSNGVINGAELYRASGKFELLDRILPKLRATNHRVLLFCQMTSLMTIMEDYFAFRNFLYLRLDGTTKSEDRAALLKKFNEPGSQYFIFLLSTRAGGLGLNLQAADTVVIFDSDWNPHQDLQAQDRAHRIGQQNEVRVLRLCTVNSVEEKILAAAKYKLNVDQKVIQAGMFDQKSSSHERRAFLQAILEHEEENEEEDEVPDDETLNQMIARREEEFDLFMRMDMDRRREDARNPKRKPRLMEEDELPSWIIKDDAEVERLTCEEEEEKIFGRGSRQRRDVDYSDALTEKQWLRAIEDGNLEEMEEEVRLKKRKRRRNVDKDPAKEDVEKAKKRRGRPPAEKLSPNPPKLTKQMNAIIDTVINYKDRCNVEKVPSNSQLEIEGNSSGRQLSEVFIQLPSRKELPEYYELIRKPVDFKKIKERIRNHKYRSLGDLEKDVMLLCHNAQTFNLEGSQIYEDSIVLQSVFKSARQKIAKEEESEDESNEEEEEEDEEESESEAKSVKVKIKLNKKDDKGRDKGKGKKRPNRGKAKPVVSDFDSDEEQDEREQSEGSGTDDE

| Structure (SMILES) | IC50 [1] [µM] | IC50 [2] [µM] | BRM Max % Inhibition [1] [%] | Emax [2] [%] |
| --- | --- | --- | --- | --- |
| Cc1cc(C(=O)NCC(=O)Nc2nc(-c3cccc(-c4ccnc(N(C)CC(=O)O)c4)c3)cs2)cn1S(C)(=O)=O [Compound 45, N-methyl-N-(4-(3-(2-(2-(5-methyl-1-(methylsulfonyl)-1H-pyrrole-3-carboxamido)acetamido)thiazol-4-yl)phenyl)pyridin-2-yl)glycine] | < 0.1 | < 0.1 | – | – |
| Cc1cc(-c2cccc(-c3csc(NC(=O)CNC(=O)c4cn(S(=O)(=O)C(C)C)c(C)c4C)n3)c2)cc(C)n1 [Compound 12, N-(2-((4-(3-(2,6-dimethylpyridin-4-yl)phenyl)thiazol-2-yl)amino)-2-oxoethyl)-1-(isopropylsulfonyl)-4,5-dimethyl-1H-pyrrole-3-carboxamide] | < 0.1 | 0.1 to 1 | >95 | > 80 |
| Cc1nccc(-c2cccc(-c3csc(NC(=O)CNC(=O)c4cc(C)n(S(=O)(=O)C(C)C)c4)n3)c2)n1 [Compound 16] | < 0.1 | < 0.1 | >95 | > 95 |
| CC(C)S(=O)(=O)n1cc(C(=O)NCC(=O)Nc2nc(-c3cccc(N4C[C@@H](C)O[C@@H](C)C4)c3)cs2)c2ccccc21 [Compound 31, N-(2-((4-(3-((cis)-2,6-dimethylmorpholino)phenyl)thiazol-2-yl)amino)-2-oxoethyl)-1-(isopropylsulfonyl)-1H-indole-3-carboxamide] | 0.1 to 1 | > 5 | >80 | < 30 |
| Cc1nccc(-c2cccc(-c3csc(NC(=O)CNC(=O)c4cn(S(C)(=O)=O)c5ccccc45)n3)n2)n1 [Compound 22, N-(2-((4-(6-(2-methylpyrimidin-4-yl)pyridin-2-yl)thiazol-2-yl)amino)-2-oxoethyl)-1-(methylsulfonyl)-1H-indole-3-carboxamide] | 0.1 to 1 | 1 to 5 | >80 | > 40 |
| Cc1cc(-c2cccc(-c3csc(NC(=O)CNC(=O)c4cn(S(C)(=O)=O)c5ccccc45)n3)c2)cc(C)n1 [Compound 33, N-(2-((4-(3-(2,6-dimethylpyridin-4-yl)phenyl)thiazol-2-yl)amino)-2-oxoethyl)-1-(methylsulfonyl)-1H-indole-3-carboxamide] | < 0.1 | 0.1 to 1 | >95 | > 90 |
| Cc1cc(-c2cccc(-c3csc(NC(=O)CNC(=O)c4cc(C)n(S(=O)(=O)C(C)C)c4)n3)c2)cc(C)n1 [Compound 7, N-(2-((4-(3-(2,6-dimethylpyridin-4-yl)phenyl)thiazol-2-yl)amino)-2-oxoethyl)-1-(isopropylsulfonyl)-5-methyl-1H-pyrrole-3-carboxamide] | < 0.1 | 0.1 to 1 | >95 | > 95 |
| CNC(=O)CN(C)c1cc(-c2cccc(-c3csc(NC(=O)CNC(=O)c4cc(C)n(S(C)(=O)=O)c4)n3)c2)ccn1 [Compound 46, 5-methyl-N-(2-((4-(3-(2-(methyl(2-(methylamino)-2-oxoethyl)amino)pyridin-4-yl)phenyl)thiazol-2-yl)amino)-2-oxoethyl)-1-(methylsulfonyl)-1H-pyrrole-3-carboxamide] | < 0.1 | < 0.1 | – | – |
| CS(=O)(=O)n1cc(C(=O)NCC(=O)Nc2nc(-c3cccc(N4CCC(O)CC4)c3)cs2)c2ccccc21 [Compound 39, N-(2-((4-(3-(4-hydroxypiperidin-1-yl)phenyl)thiazol-2-yl)amino)-2-oxoethyl)-1-(methylsulfonyl)-1H-indole-3-carboxamide] | 0.1 to 1 | 1 to 5 | >80 | < 30 |
| Cc1cc(-c2cccc(-c3csc(NC(=O)CNC(=O)c4cc(Cl)n(S(=O)(=O)C(C)C)c4)n3)n2)ncn1 [Compound 27, 5-chloro-1-(isopropylsulfonyl)-N-(2-((4-(6-(6-methylpyrimidin-4-yl)pyridin-2-yl)thiazol-2-yl)amino)-2-oxoethyl)-1H-pyrrole-3-carboxamide] | 0.1 to 1 | 0.1 to 1 | >80 | > 60 |
| C[C@@H]1CN(c2cccc(-c3csc(NC(=O)CNC(=O)c4cnn(C(C)(C)C)c4Cl)n3)c2)C[C@H](C)O1 [Compound 43, 1-(tert-butyl)-5-chloro-N-(2-((4-(3-((2R,6S)-2,6-dimethylmorpholino)phenyl)thiazol-2-yl)amino)-2-oxoethyl)-1H-pyrazole-4-carboxamide] | < 0.1 | 0.1 to 1 | – | – |
| Cc1cc(-c2cccc(-c3csc(NC(=O)CNC(=O)c4cn(S(=O)(=O)C(C)C)c5ccccc45)n3)c2)cc(C)n1 [Compound 34, N-(2-((4-(3-(2,6-dimethylpyridin-4-yl)phenyl)thiazol-2-yl)amino)-2-oxoethyl)-1-(isopropylsulfonyl)-1H-indole-3-carboxamide] | < 0.1 | 1 to 5 | >90 | > 60 |
| Cc1nccc(-c2cccc(-c3csc(NC(=O)CNC(=O)c4cc(Cl)n(S(=O)(=O)C(C)C)c4)n3)c2)n1 [Compound 41, 5-chloro-1-isopropylsulfonyl-N-[2-[[4-[3-(2-methylpyrimidin-4-yl)phenyl]thiazol-2-yl]amino]-2-oxo-ethyl]pyrrole-3-carboxamide] | < 0.1 | 0.1 to 1 | >95 | > 90 |
| Cc1cc(-c2cccc(-c3csc(NC(=O)CNC(=O)c4cc(CO)n(S(=O)(=O)C(C)C)c4)n3)c2)cc(C)n1 [Compound 25, N-(2-((4-(3-(2,6-dimethylpyridin-4-yl)phenyl)thiazol-2-yl)amino)-2-oxoethyl)-5-(hydroxymethyl)-1-(isopropylsulfonyl)-1H-pyrrole-3-carboxamide] | < 0.1 | 0.1 to 1 | >95 | > 80 |
| Cc1cc(C(=O)NCC(=O)Nc2nc(-c3cccc(N4C[C@@H](C)O[C@@H](C)C4)c3)cs2)cn1S(=O)(=O)C(C)C [Compound 8, N-(2-((4-(3-((2S,6R)-2,6-dimethylmorpholino)phenyl)thiazol-2-yl)amino)-2-oxoethyl)-1-(isopropylsulfonyl)-5-methyl-1H-pyrrole-3-carboxamide] | 0.1 to 1 | 0.1 to 1 | >95 | > 70 |
| CC(C)S(=O)(=O)n1cc(C(=O)NCC(=O)Nc2nc(-c3cccc(N4CCC(O)CC4)c3)cs2)cc1Cl [Compound 40, 5-chloro-N-(2-((4-(3-(4-hydroxypiperidin-1-yl)phenyl)thiazol-2-yl)amino)-2-oxoethyl)-1-(isopropylsulfonyl)-1H-pyrrole-3-carboxamide] | 0.1 to 1 | 1 to 5 | >80 | > 50 |
| CC(C)S(=O)(=O)n1cc(C(=O)NCC(=O)Nc2nc(-c3cc(F)cc(N4C[C@@H](C)O[C@@H](C)C4)c3)cs2)c2ccccc21 [Compound 21, N-(2-((4-(3-((cis)-2,6-dimethylmorpholino)-5-fluorophenyl)thiazol-2-yl)amino)-2-oxoethyl)-1-(isopropylsulfonyl)-1H-indole-3-carboxamide] | 0.1 to 1 | > 5 | >90 | < 30 |
| Cc1cc(-c2cccc(-c3csc(NC(=O)CNC(=O)c4cn(S(=O)(=O)C(C)C)c(C)c4C)n3)c2)nc(C)n1 [Compound 14] | < 0.1 | 0.1 to 1 | >95 | > 90 |
| Cc1c(C(=O)NCC(=O)Nc2nc(-c3cccc(-c4ccncc4)c3)cs2)cn(S(C)(=O)=O)c1C [Compound 11, 4,5-dimethyl-1-(methylsulfonyl)-N-(2-oxo-2-((4-(3-(pyridin-4-yl)phenyl)thiazol-2-yl)amino)ethyl)-1H-pyrrole-3-carboxamide] | < 0.1 | < 0.1 | >95 | > 80 |
